# Laboratory results reported in PMC8130708 (Journal of medicinal chemistry, 2021).
# Entries after “also recorded” stand apart in the source; their conditions may differ.
# Legend:
# NSD2-PWWP1 [1] = molecular target: T1, NSD2-PWWP1 (Homo sapiens, UniProt O96028); assay: Differential static light scattering; format: binding; details: read-out: increase of melting temperature of N-terminal PWWP domain of NSD2
# T1 sequence (O96028 211-350): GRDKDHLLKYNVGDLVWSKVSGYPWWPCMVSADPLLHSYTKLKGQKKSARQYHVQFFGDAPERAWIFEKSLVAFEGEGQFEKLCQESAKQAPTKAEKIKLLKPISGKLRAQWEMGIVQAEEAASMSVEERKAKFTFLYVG
# PWWP domains = details: DSLS
# NSD2-PWWP1 [2] = molecular target: T2, NSD2-PWWP1 (Homo sapiens, UniProt O96028); format: binding; details: for potency on NSD2-PWWP1, SAR statement in words: relative to parent compound 2 or 3, Tables 1 and 2 (images, DSLS/SPR)
# T2 sequence (O96028 222-286 limits assumed): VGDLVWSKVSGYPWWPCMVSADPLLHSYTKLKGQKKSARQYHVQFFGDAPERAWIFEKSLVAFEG
SMILES,"potency on NSD2-PWWP1, SAR statement in words (NSD2-PWWP1 [2])",further results
N#Cc1ccc(C(C(N)=O)N2CCC2c2ccc(Cl)cc2)cc1 (centres unmarked) [Compound 1],,ΔTm at 400 µM (NSD2-PWWP1 [1]): 4 °C; binding to six other PWWP-containing proteins (PWWP domains; compound at 400 μM (Table S2)): did not bind
N#Cc1ccc(C(=O)N2CCCC2c2ccccc2)cc1 (centres unmarked) [Compound 2a],improved potency,
COc1ccc(C2CCCN2C(=O)c2ccc(C#N)cc2)cc1 (centres unmarked) [Compound 2b],no significant effect,
O=C(c1ccccc1)N1CCCC1c1ccccc1 (centres unmarked) [Compound 2h],abolished activity,
Cc1ccc(C(=O)N2CCCC2c2ccc(Cl)cc2)cc1 (centres unmarked) [Compound 2i],abolished activity,
N#Cc1ccc(C(=O)N(Cc2ccc(F)cc2)C2CC2)cc1 [Compound 3],,fold more potent than compound 1 (NSD2-PWWP1 [2]; ratio of SPR Kd values): 6; fold more potent than compound 2 (NSD2-PWWP1 [2]; ratio of SPR Kd values): 25
CN(Cc1ccc(F)cc1)C(=O)c1ccc(C#N)cc1 [Compound 3a],much weaker or completely inactive,
N#Cc1ccc(C(=O)NCc2ccc(F)cc2)cc1 [Compound 3b],much weaker or completely inactive,
N#Cc1ccc(C(=O)N(Cc2cccs2)C2CC2)cc1 [Compound 3f],,binding / effect on melting temperature in a panel of 10 PWWP domains (PWWP domains; compound at 100 μM (Figure 2C)): only bound NSD2-PWWP1; also recorded: only affects the melting temperature of NSD2-PWWP1
